Consider three molecules from patent US20240103015A1, “METHODS FOR ASSAYING SLC34A2 EXPRESSION IN MUSCLE TISSUE AND TREATING FACIOSCAPULOHUMERAL MUSCULAR DYSTROPHY” (University of Maryland, Baltimore, priority 2022, published 2024).

Assay [1] deals with DUX4 target genes (MBD3L2, LEUTX, SLC34A2). Nature of the assay: qPCR of DUX4 target gene mRNAs in FSHD xenografts of treated mice. In kind it is in vivo, mouse. On the procedure: Xenografts are treated starting at 5 weeks after initial engraftment. Dosage is 10 mg/kg BID, injected IP.
In general terms: In qPCR the cycle at which signal appears reflects the starting amount.

Assay [2] relates to SLC34A2 protein in C6 (FSHD) myotubes. Nature of the assay: Immunoblot of SLC34A2 protein in cultured FSHD myotubes treated with p38 kinase inhibitors. The following applies: for expression of the SLC34A2 protein: cultured C6 (FSHD) myotubes. The class given is cell-based, human. The text has this:
(i): We have adapted and improved our procedures to assay for SLC34A2 mRNA and protein in myotubes of immortalized myoblasts derived from FSHD and healthy individuals. To establish the validity of our assays, we use losmapimod and other p38 kinase inhibitors.

The test system of assay [3] is SLC34A2 protein at the surface of FSHD myotubes. The assay can be described thus: Surface labeling of SLC34A2 protein on FSHD myotubes with and without losmapimod. The class given is cell-based, human. The text has this: FIG. 20. Labeling of SLC34A2 protein at the surface of FSHD myotubes, with and without treatment with losmapimod. […] FIG. 21. Relative intensities of surface labeling of SLC34A2 in FSHD myotubes with and without losmapimod treatment, as in FIG. 20, normalized to the desmin signal in each ROI. *, p<0.05.

The test system of assay [4] is DUX4, SLC34A2 and other downstream gene products of DUX4. The assay can be described thus: Relative mRNA expression of DUX4 and downstream genes in FSHD myotubes with and without losmapimod. In kind it is cell-based, human. The text has this:
FIG. 22. Relative mRNA expression of DUX4, SLC34A2, and other downstream gene products of DUX4, in the presence and absence of losmapimod. *, p<0.05, **, p<0.01.

The subject of assay [5] is SLC34A2. The settings on record: cited from earlier work.
Assay [6] addresses T1, SLC34A2 (Homo sapiens, UniProt O95436, D634G).
T1 construct: from tissue; host or cells: Xenografts of human FSHD myoblasts (C6, 15A; controls A4, 15V) in the tibialis anterior of NRG mice
T1 sequence (O95436 1-689 isoform O95436-2 D633G): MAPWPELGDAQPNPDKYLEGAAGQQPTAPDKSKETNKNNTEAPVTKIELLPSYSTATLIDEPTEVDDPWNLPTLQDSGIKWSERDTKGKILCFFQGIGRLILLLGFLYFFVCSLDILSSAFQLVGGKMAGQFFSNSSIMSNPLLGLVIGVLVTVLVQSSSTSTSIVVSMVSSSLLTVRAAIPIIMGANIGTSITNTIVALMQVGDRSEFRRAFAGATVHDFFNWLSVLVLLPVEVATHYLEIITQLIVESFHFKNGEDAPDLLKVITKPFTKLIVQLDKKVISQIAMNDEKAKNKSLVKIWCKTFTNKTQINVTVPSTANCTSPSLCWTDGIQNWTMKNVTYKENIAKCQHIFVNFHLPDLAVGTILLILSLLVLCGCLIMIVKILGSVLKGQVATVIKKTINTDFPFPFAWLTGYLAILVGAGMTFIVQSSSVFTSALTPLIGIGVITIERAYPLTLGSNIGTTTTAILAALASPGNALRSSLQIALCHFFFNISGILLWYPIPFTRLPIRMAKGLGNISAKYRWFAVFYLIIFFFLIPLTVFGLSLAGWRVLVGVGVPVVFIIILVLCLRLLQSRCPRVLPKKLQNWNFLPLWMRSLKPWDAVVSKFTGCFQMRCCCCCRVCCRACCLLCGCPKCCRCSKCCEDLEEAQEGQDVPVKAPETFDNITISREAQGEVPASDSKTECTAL
The assay can be described thus: Immunolabeling of living FSHD (C6) and control (A4) myotubes. The class given is binding. The settings on record: FSHD (C6) vs control (A4) myotubes. The text has this: FIG. 14. Immunolabeling of living FSHD (C6) and control (A4) myotubes with MX35 and control IgG. DAPI was used as a counterstain (blue). Bound MX35 and control IgG were recognized with Alexa-568 labeled goat anti-mouse IgG (red).

The target in assay [7] is T1, SLC34A2. Nature of the assay: Immunoprecipitation of SLC34A2 from extracts of FSHD muscle cells in culture. The class given is binding. The text has this:
FIG. 13. Immunoblots of FSHD and control myotubes with antibodies to the C- and N-termini of SLC34A2 (A) and after immunoprecipitation with MX35 (B), followed by blotting.

For assay [8], the target named is T1, SLC34A2. Nature of the assay: Immunofluorescent labeling of frozen sections of xenografts with MX35. The following applies: FSHD (C6) xenografts in Tibialis anterior of NRG mice. In kind it is binding. The text has this: (§1) Antibodies: MX35 is a mouse mAb from the Sloan-Kettering Research Institute. Biotinylation and conjugation of MX35 or its Fab fragments, to Alexa fluorophores from InVitrogen/ThermoFisher, will follow manufacturer's instructions. Rabbit mAbs to the N- and C-terminal regions of SLC34A2 (Cell Signaling) are used at 1:100 dilutions. Fluorescent secondary antibodies and streptavidin are available commercially.
(§2) Immunofluorescence: Mice will be euthanized and blood samples taken. Muscles will be collected and either snap frozen or processed for PCR or immunoblotting. Frozen muscles will be-sectioned on a cryostat and labeled for biotinylated MX35 with fluorescent streptavidin or antibodies to biotin. Double labeling with rabbit anti-SLC34A2 antibodies will be performed to confirm the identity of positive fibers. Additional labeling with human-specific antibodies (e.g., to β-spectrin, lamin followed by isoform-specific secondary antibodies will be used to confirm the identify of fibers of human origin in the xenografts, as: necessary.
(§3) Results: We used immortalized C6 myoblasts (14) to generate xenografts in the Tibialis anterior muscles of NRG mice. Cross sections of the graft show similar immunofluorescent labeling by MX35 and a rabbit Ab to the C-terminus of SLC34A2 (FIG. 6). […]

Assay [9] concerns the target T2, SLC34A2 (Homo sapiens, UniProt O95436).
T2 construct: from tissue; host or cells: Xenografts of human FSHD myoblasts (C6, 15A; controls A4, 15V) in the tibialis anterior of NRG mice
T2 sequence (O95436 1-689 isoform O95436-2 D633G): T1 sequence (O95436 1-689 isoform O95436-2 D633G)
Described as above. The class given is binding. The settings on record: control grafts generated with A4 cells.
Source text: as §1, §2, §3

Assay [10] addresses T3, SLC34A2 in FSHD xenografts (Homo sapiens, UniProt O95436).
T3 construct: from tissue; host or cells: Xenografts of human FSHD myoblasts (C6, 15A; controls A4, 15V) in the tibialis anterior of NRG mice
T3 sequence (O95436 1-689 isoform O95436-2 D633G): T1 sequence (O95436 1-689 isoform O95436-2 D633G)
The assay can be described thus: IVIS imaging of living mice carrying xenografts after injection of fluorescent antibody. The following applies: living mice (IVIS) and frozen sections. The class given is in vivo, mouse. The text has this:
(ii): Given the level of variability we observe in our xenografts, and the small numbers of FSHD myofibers in the grafts generated by some of the FSHD cell lines we have been studying, we thought it important to be able to monitor the diseased myofibers in living mice. Our approach is to inject mice with an infrared fluorescent version of a monoclonal antibody to SLC34A2, MX-35, that recognizes an extracellular epitope of the protein and that has been used clinically with patients with ovarian cancer. This approach should allow us to estimate the lifetime of the fibers once they become positive for SLC34A2, and, using different IR fluorophores, what the rate of appearance of newly positive fibers is in our grafts. It could also be used to test potential treatments for FSHD both in mice and in clinical trials with FSHD patients.
Injection and Imaging: Mice will be injected IV with fluorescent mAb or Fab fragments either through the tail vein or retroorbitally, with 150 μg of the biotinylated antibodyfluorophore conjugate in […]. Imaging in a Xenogen IVIS Spectrum Optical In Vivo imaging System (Perkin Elmer), will begin 2 hr later, repeated daily for 3 days, and at longer intervals thereafter. Repeated injections will also be done at regular intervals, to be determined, based on the levels of the antibody-conjugate remaining in circulation.

Assay [11] deals with SLC34A2. The following applies: epithelia and cancers; cited from earlier work.
Where [12] appears, read: 10 mg/kg BID IP from 5 weeks after engraftment.

Take `CC(C)(C)Cn1c(N)nc2ccc(-c3[nH]c(C(C)(C)C)nc3-c3ccc(F)cc3)nc21` [LY222820, ralimetinib]: the “expression of the mRNAs encoding DUX4 target genes, including SLC34A2” value in assay [1] was “reduces expression”. Also, in [1] (setting [12]), the “LEUTX reduction in expression” value is 60-70%, the “MBD3L2 reduction in expression” value is listed as 60-70% and the “SLC34A2 reduction in expression” value is 41%. Besides, the “expression of the SLC34A2 protein” value in assay [2] is listed as “Decreased expression”.
With `Cc1c(F)cc(C(=O)NC2CC2)cc1-c1ccc(C(=O)NCC(C)(C)C)cn1` [losmapimod], in assay [3], the “surface labeling signal of SLC34A2 protein” value is “reduces this signal significantly”. For the same molecule, in assay [4], the “mRNAs encoding DUX4, SLC34A2 and other gene products downstream of DUX4” value is “reduces the mRNAs encoding DUX4 and SLC34A2”. Also, the “expression of the SLC34A2 protein” value in assay [2] is on record as “Decreased expression”. In assay [2] (cultured FSHD myotubes, immunoblots), this molecule came in with an SLC34A2 protein level of −2 fold. Moreover, the “expression of SLC34A2” value in the assay with SLC34A2 [5] is recorded as “reduces the expression of SLC34A2”.
Regarding MX35, on SLC34A2 [6], the “labeling of the surface of living myotubes” value is “specifically labels the surface of intact living FSHD myotubes, but not control, healthy myotubes”. In addition, the “immunoprecipitation of SLC34A2” value on SLC34A2 [7] is “can immunoprecipitated SLC34A2”. Besides, the “recognition of SLC34A2 in xenograft sections” value at SLC34A2 [8] is recorded as “recognizes SLC34A2 in mature FSHD skeletal muscle”. Moreover, the “labeling of control graft sections” value on SLC34A2 [9] is “no labeling”. Moreover, the “detection of antibody-tagged fibers in grafts” value in [10] was “can be detected in FSHD but not control grafts”. The “binding to SLC34A2” value with SLC34A2 [11] is “bind SLC34A2 present in epithelia and cancers”.
